Read-outs that look alike come from different tables or passages of the source.
Experiment: Effect of a single 2 g dose of SYM-1219 on the plasma pharmacokinetics of EE2 and NET in healthy female subjects
Type: in vivo, human
Settings: for AUC(0-t) / AUC(0-inf) / Cmax: female, human, plasma
Description: Methods: Fifty-four (54) healthy female subjects, ages 18-65, received EE2/NET alone and in combination, where SYM-1219+EE2/NET were co-administered on Day 1 (Group B1; N=27) or SYM-1219 on Day 1 and EE2/NET on Day 2 (Group B2; N=27). Serial blood samples were drawn to measure plasma concentrations of EE2/NET. […] Safety was evaluated by recording of adverse events, vital signs, ECGs and standard laboratory tests.

[1] = Group B1: Period 2 (EE2/NET followed by SYM-1219 2 grams on Day 1) vs Period 1 (EE2/NET alone)
[2] = Group B1: SYM-1219 2 g and EE2/NET co-administered on Day 1
[3] = Group B2: Period 2 (SYM-1219 2 grams on Day 1, EE2/NET on Day 2) vs Period 1 (EE2/NET alone)

With C#C[C@]1(O)CC[C@H]2[C@@H]3CCc4cc(O)ccc4[C@H]3CC[C@@]21C [EE2, ethinyl estradiol] the “EE2 AUC0-t, Geometric LSMean % Ratio (100 * Test/Reference)” value [1] was 94.26%, the “EE2 AUC0-∞, Geometric LSMean % Ratio (100 * Test/Reference)” value [1] was 105.37% and the “EE2 Cmax, Geometric LSMean % Ratio (100 * Test/Reference)” value [1] was 71.07%. For the same compound, the “EE2 Cmax reduction” value [2] was 29%, the “change in EE2 AUC” value [2] was “no change” and the “EE2 AUC0-t, Geometric LSMean % Ratio (100 * Test/Reference)” value [3] was 99.04%. For the same compound, the “EE2 AUC0-∞, Geometric LSMean % Ratio (100 * Test/Reference)” value [3] was 93.32%, the “EE2 Cmax, Geometric LSMean % Ratio (100 * Test/Reference)” value [3] was 104.96% and the “EE2 PK alteration” value (Group B2: SYM-1219 2 g on Day 1, EE2/NET on Day 2) was “not altered”. For the same compound, the AUC(0-t) (Group B1 Period 1: EE2/NET alone, read-out: EE2 AUC0-t, Geometric Least Squares (LS) Means) was 0.627 ng·h/mL, the AUC(0-t) (Group B1 Period 1: EE2/NET alone, read-out: EE2 AUC0-t, Mean) was 0.644 ng·h/mL and the AUC(0-inf) (Group B1 Period 1: EE2/NET alone, read-out: EE2 AUC0-∞, Geometric Least Squares (LS) Means) was 0.878 ng·h/mL. For the same compound, the AUC(0-inf) (Group B1 Period 1: EE2/NET alone, read-out: EE2 AUC0-∞, Mean) was 0.911 ng·h/mL, the Cmax (Group B1 Period 1: EE2/NET alone, read-out: EE2 Cmax, Geometric Least Squares (LS) Means) was 0.0779 ng/mL and the Cmax (Group B1 Period 1: EE2/NET alone, read-out: EE2 Cmax, Mean) was 0.0806 ng/mL. It also gave an AUC(0-t) (Group B1 Period 2: EE2/NET followed by SYM-1219 2 grams on Day 1, read-out: EE2 AUC0-t, Geometric Least Squares (LS) Means) of 0.591 ng·h/mL, an AUC(0-t) (Group B1 Period 2: EE2/NET followed by SYM-1219 2 grams on Day 1, read-out: EE2 AUC0-t, Mean) of 0.616 ng·h/mL and an AUC(0-inf) (Group B1 Period 2: EE2/NET followed by SYM-1219 2 grams on Day 1, read-out: EE2 AUC0-∞, Geometric Least Squares (LS) Means) of 0.925 ng·h/mL. For the same compound, the AUC(0-inf) (Group B1 Period 2: EE2/NET followed by SYM-1219 2 grams on Day 1, read-out: EE2 AUC0-∞, Mean) was 0.954 ng·h/mL, the Cmax (Group B1 Period 2: EE2/NET followed by SYM-1219 2 grams on Day 1, read-out: EE2 Cmax, Geometric Least Squares (LS) Means) was 0.0554 ng/mL and the Cmax (Group B1 Period 2: EE2/NET followed by SYM-1219 2 grams on Day 1, read-out: EE2 Cmax, Mean) was 0.0599 ng/mL. It also gave an AUC(0-t) (Group B2 Period 1: EE2/NET alone, read-out: EE2 AUC0-t, Geometric Least Squares (LS) Means) of 0.65 ng·h/mL, an AUC(0-t) (Group B2 Period 1: EE2/NET alone, read-out: EE2 AUC0-t, Mean) of 0.68 ng·h/mL and an AUC(0-inf) (Group B2 Period 1: EE2/NET alone, read-out: EE2 AUC0-∞, Geometric Least Squares (LS) Means) of 0.945 ng·h/mL. For the same compound, the AUC(0-inf) (Group B2 Period 1: EE2/NET alone, read-out: EE2 AUC0-∞, Mean) was 0.995 ng·h/mL, the Cmax (Group B2 Period 1: EE2/NET alone, read-out: EE2 Cmax, Geometric Least Squares (LS) Means) was 0.083 ng/mL and the Cmax (Group B2 Period 1: EE2/NET alone, read-out: EE2 Cmax, Mean) was 0.0891 ng/mL. It also gave an AUC(0-t) (Group B2 Period 2: SYM-1219 2 grams on Day 1, EE2/NET on Day 2, read-out: EE2 AUC0-t, Geometric Least Squares (LS) Means) of 0.644 ng·h/mL, an AUC(0-t) (Group B2 Period 2: SYM-1219 2 grams on Day 1, EE2/NET on Day 2, read-out: EE2 AUC0-t, Mean) of 0.669 ng·h/mL and an AUC(0-inf) (Group B2 Period 2: SYM-1219 2 grams on Day 1, EE2/NET on Day 2, read-out: EE2 AUC0-∞, Geometric Least Squares (LS) Means) of 0.882 ng·h/mL. For the same compound, the AUC(0-inf) (Group B2 Period 2: SYM-1219 2 grams on Day 1, EE2/NET on Day 2, read-out: EE2 AUC0-∞, Mean) was 0.937 ng·h/mL, the Cmax (Group B2 Period 2: SYM-1219 2 grams on Day 1, EE2/NET on Day 2, read-out: EE2 Cmax, Geometric Least Squares (LS) Means) was 0.0872 ng/mL and the Cmax (Group B2 Period 2: SYM-1219 2 grams on Day 1, EE2/NET on Day 2, read-out: EE2 Cmax, Mean) was 0.0926 ng/mL.

Source: patent US11684607B2, “Secnidazole for use in the treatment of bacterial vaginosis” (priority 2014, dated 2023)
